# Experimental data reported in PMC11491488 (Scientific Reports, 2024).
# Legend:
# [1] = test system: gram-negative Pseudomonas aeruginosa (P. aeruginosa); assay: MIC assay, percentage growth inhibition, serial dilution in 96-well plates; type: cell-based; conditions: for inhibition of bacterial cells: at higher concentrations
# [2] = test system: gram-positive Staphylococcus aureus (S. aureus); assay: as above; type: cell-based; conditions: for inhibition of bacterial cells: at higher concentrations
SMILES,"inhibition at 40 µg/mL ([1]; Pseudomonas aeruginosa, read-out: inhibitory effect against P. aeruginosa)",inhibition of bacterial cells [1],"inhibition at 128 µg/mL ([2]; Staphylococcus aureus, read-out: inhibitory effect against S. aureus)",inhibition of bacterial cells [2],percent of P. aeruginosa killed ([1]; 4 µg/mL),percent of S. aureus killed ([2]; 12 µg/mL)
"CCn1cc(C(=O)O)c(=O)c2cc(F)c(N3CCNCC3)cc21 [NOR, norfloxacin]",100.4 ± 0.17%,90%,97.9 ± 0.38%,90%,,
"C[C@H]1COc2c(N3CCN(C)CC3)c(F)cc3c(=O)c(C(=O)O)cn1c23 [LEVO, levofloxacin]",,90%,,90%,,
"O=C(O)c1cn(C2CC2)c2cc(N3CCNCC3)c(F)cc2c1=O [CIPRO, ciprofloxacin]",,90%,,90%,100.67 ± 0.39%,98.30 ± 0.26%
